Source: US6365126B1, “Learning and short term memory defects with Neurofibromatosis 1 (NF1) expression” (Cold Spring Harbor Laboratory, priority 1997, dated 2002)
Like-named read-outs stand apart in the source and are kept apart here.

Key:
[1] = system: K^+ currents of body-wall muscle fibers; assay: Two-microelectrode voltage-clamp recording of PACAP38-induced responses, larval body-wall neuromuscular preparation; parameters: species or system Drosophila
Procedure: PACAP38-induced responses were recorded by the two-microelectrode voltage-clamp method from body-wall muscle fibers of larvae at the third instar (Zhong, Y., Nature, 375:588-592 (1995); Arimura, A. Regulatory Peptides, 37:287-303 (1992); Spengler, D. et al., Nature, 365:170-175 (1993); Jan, L. Y. et al., J. Physiol., 262:189-214 (1976); Wu, C.-F. et al., Science, 220:1076-1078 (1983); Stewart, B. A. et al., J. Comp. Physiol., 175:179-191 (1994)). Electrophysiological recording: The larval body-wall neuromuscular preparation has been described (Zhong, Y. et al., Neuron, 14:527-536 (1995); Zhong, Y., Nature, 375:588-592 (1995); Jan, L. Y. et al., J. Physiol., 262:189-214 (1976); Wu, C.-F. et al., Science, 220:1076-1078 (1983); Stewart, B. A. et al., J Comp Physiol., 175:179-191 (1994)). The setup, saline, recording conditions and voltage paradigms were as described (Zhong, Y. et al., Neuron, 14:527-536 (1995); Zhong, Y., Nature, 375:588-592 (1995)). For recording the PACAP38-induced synaptic current, the membrane potential was clamped at −80 mV. For recording K^+ currents, command voltages were stepped from the holding potential of −80 to −50 and +20 mV, respectively. […] PACAP38 was applied by pressure ejection through a glass electrode positioned near the voltage-clamped muscle membrane. Forskolin and cAMP analogs were applied to the solution bathing the preparation.

[2] = system: K^+ currents of body-wall muscle fibers; conditions: cited from earlier work
adenylyl cyclase = assay: Adenylyl cyclase activity assay, membrane fractions of adult brain tissues; assay type: biochemical, Drosophila; conditions: GTPγS 20 μM
Procedure: The adenylyl cyclase activity assay described in Livingstone, M. S., Proc. Natl. Acad. Sci. USA, 82:5992-5996 (1985)) was modified as follows. The membrane fraction was extracted from either male heads with the cuticle removed to leave essentially brain tissue, or from 10 male abdomens. Twenty (20) dissected brains in 850 μl lysis buffer were homogenized, and the membrane fraction was extracted by centrifugation at 178,000 g for 10 minutes. GTPγS (final concentration, 20 μM) was added to stimulate G-protein activated adenylyl cyclase activity immediately after homogenization but before centrifugation. When assaying the basal level of adenylyl cyclase activity, GTPγS was not added. These modifications seemed to amplify the NF1 effect. Calcium concentrations were calculated according to MaxChelator v1.31 (Bers, D. M. et al., Methods. Cell. Biol., 40:3-29 (1994)). […] Biochemical assays provide direct evidence to support the electrophysiological data. Previous experiments have shown that Rut-AC expressed in a cell line can be stimulated not only by Ca^2+/calmodulin, but also by reagents that stimulate G-proteins, including GTPγS and AIF4^- (see Levin, L. R. et al., Cell, 68:479-489 (1992)). First, AC activity in membrane fractions of adult brain tissues was examined. […] Thus, GTPγS-stimulated AC activity consists of two components: one that is NF1-dependent and one that is NF1-independent.

PACAP38
PACAP38-induced enhancement of K^+ currents ([1]; Gap1 null mutants rI^533B1 and rI^533PB): normal enhancement
PACAP38-induced enhancement of K^+ currents ([1]; NF1^P1 and NF1^P2 mutant larvae): abolished
PACAP38-induced inward current ([1]; NF1^P1 and NF1^P2 mutant larvae, membrane potential clamped at -80 mV): remained mostly intact
PACAP38-induced enhancement of K^+ currents ([2]; wild-type larvae, perfusion to the neuromuscular junction): 100 fold

Nc1nc2c(ncn2[C@@H]2O[C@H](COP(=O)(O)OP(=O)(O)OP(O)(O)=S)[C@@H](O)[C@H]2O)c(=O)[nH]1 [GTPγS]
GTPγS stimulated AC activity compared with control (K33) (adenylyl cyclase; NF1^P1 and NF1^P2 mutant membranes): markedly reduced
GTPγS-stimulated activity compared with the basal level (adenylyl cyclase; NF1 mutant membranes): significant GTPγS-stimulated activity occurred above the basal level

CCCC(=O)Nc1ncnc2c1ncn2[C@@H]1O[C@@H]2COP(=O)(O)O[C@H]2[C@H]1OC(=O)CCC [dibutyryl cAMP]
effect of cAMP analog on the PACAP38 response ([1]; NF1 mutants (NF1^P2 homozygotes, NF1^P1/NF1^P2 larvae)): restore the normal response to PACAP38
effect of cAMP analog on the PACAP38 response ([1]; wild-type larvae): appeared not to disrupt the PACAP38 response
PACAP38-like enhancement of K^+ currents by cAMP analog alone ([2]; larval neuromuscular preparation, no PACAP38): insufficient
